These results are taken from US7714146B2, “Azulene-oxindole compounds as multiple-kinase inhibitors and useful as anticancer agents” (Industrial Technology Research Institute, priority 2006, dated 2010).

Assay type in all cases: biochemical
The target in experiment [1] is T1, human EGFR (His672-Ala1210) (Homo sapiens, UniProt P00533).
T1 construct: human EGFR (His672-Ala1210); GST (N); purchased Cell Signaling Technology; host or cells: baculovirus expression system
Put plainly: EGFR kinase assay (HTScan kit, DELFIA). To be noted: for inhibition at 0.1 µM: read-out: EGFR 0.1 μM, % of inhibition relative to control; for inhibition at 1 µM: read-out: EGFR 1 μM, % of inhibition relative to control. As for the experimental part: Compounds 1-100 were treated for their efficacy in inhibiting activities of FLT-3, c-KIT, KDR/Flk-1, PDGFR-beta, EGFR, and PKC kinases by biochemical DELFIA (Dissociation Enhanced Lanthanide FIA) assays according to the procedure described below. The assays were conducted by, Division of Cell Engineering, Biomedical Engineering Research Laboratories, Industrial Technology Research Institute, Bldg. 53, 195, sec. 4, Chung Hsing Rd. Chutung, Hsinchu, Taiwan 310, R.O.C.
The EGFR assay was conducted following the protocol described in Protocol for HTScan® EGFR Kinase Assay Kit (Cell Signaling Technology®). The assay was conducted under the following conditions: EGFR source: The GST-kinase fusion protein was produced using a baculovirus expression system with a construct expressing human EGFR (His672-Ala1210) (GenBank Accession No. NM_005228) with an amino-terminal GST tag, substrate: 1.5 μM This biotinylated peptide contains the residues surrounding Tyr-66 of PTP1B, vehicle: 1% DMSO, pre-incubation time/temperature: 5 minutes at room temperature, incubation time/temperature: 30 minutes at room temperature, incubation buffer: 60 mM HEPES pH 7.5, 5 mM MgCl2, 5 mM MnCl2, 3 μM Na3VO4, 1.25 mM DTT, 20 μM ATP, and quantitative method: DELFIA® Assay.

Experiment [2] has as its target T2, human c-KIT (Thr544-Val976) (Homo sapiens, UniProt P10721).
T2 construct: human c-KIT (Thr544-Val976); GST (N); purchased Cell Signaling Technology; host or cells: baculovirus expression system
As to the kind of experiment: c-KIT kinase assay (HTScan kit, DELFIA). To be noted: for inhibition at 0.1 µM: read-out: c-KIT 0.1 μM, % of inhibition relative to control; for inhibition at 1 µM: read-out: c-KIT 1 μM, % of inhibition relative to control. Put shortly:
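GST-tagged human c-KIT (Thr544-Val976) from baculovirus, with 1.5 μM biotinylated KDR Tyr-996 peptide and 20 μM ATP in HEPES pH 7.5 buffer containing Mg2+/Mn2+ and 1% DMSO. Enzyme and compound pre-incubated 5 min, reaction run 30 min at room temperature; phosphorylation detected by DELFIA.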

Experiment [3] deals with T3, human FLT-3 (Arg571-Ser993) (Homo sapiens, UniProt P36888).
T3 construct: human FLT-3 (Arg571-Ser993); GST (N); purchased Cell Signaling Technology; host or cells: baculovirus expression system
T3 sequence (P36888 571-993): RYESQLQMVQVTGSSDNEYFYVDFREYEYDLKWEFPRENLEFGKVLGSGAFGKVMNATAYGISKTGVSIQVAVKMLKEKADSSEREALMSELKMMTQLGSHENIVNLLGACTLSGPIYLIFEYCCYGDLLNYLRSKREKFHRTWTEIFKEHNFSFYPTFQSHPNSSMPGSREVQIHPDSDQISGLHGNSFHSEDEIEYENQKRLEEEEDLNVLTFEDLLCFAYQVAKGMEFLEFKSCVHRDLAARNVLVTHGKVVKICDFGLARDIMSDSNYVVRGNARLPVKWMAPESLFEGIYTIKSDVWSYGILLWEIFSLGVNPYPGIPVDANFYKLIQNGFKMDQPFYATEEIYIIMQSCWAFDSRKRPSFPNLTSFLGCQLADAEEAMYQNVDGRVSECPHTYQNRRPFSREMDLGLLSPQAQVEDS
As to the kind of experiment: FLT-3 kinase assay (HTScan kit, DELFIA). The note with it: for inhibition at 0.1 µM: read-out: FLT-3 0.1 μM, % of inhibition relative to control; for inhibition at 1 µM: read-out: FLT-3 1 μM, % of inhibition relative to control. In short, it runs like this: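 GST-tagged human FLT-3 (Arg571-Ser993, baculovirus-expressed) phosphorylated 1.5 μM biotinylated gastrin precursor peptide with 20 μM ATP in HEPES pH 7.5, Mg/Mn buffer and 1% DMSO. After 5 min preincubation, the reaction ran 30 min at room temperature. Phosphorylation was read by DELFIA.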

For experiment [4], the target named is T4, human VEGFR-2 (Val789-Val1356) (Homo sapiens, UniProt P35968).
T4 construct: human VEGFR-2 (Val789-Val1356); GST (N); purchased Cell Signaling Technology; host or cells: baculovirus expression system
T4 sequence (P35968 789-1356): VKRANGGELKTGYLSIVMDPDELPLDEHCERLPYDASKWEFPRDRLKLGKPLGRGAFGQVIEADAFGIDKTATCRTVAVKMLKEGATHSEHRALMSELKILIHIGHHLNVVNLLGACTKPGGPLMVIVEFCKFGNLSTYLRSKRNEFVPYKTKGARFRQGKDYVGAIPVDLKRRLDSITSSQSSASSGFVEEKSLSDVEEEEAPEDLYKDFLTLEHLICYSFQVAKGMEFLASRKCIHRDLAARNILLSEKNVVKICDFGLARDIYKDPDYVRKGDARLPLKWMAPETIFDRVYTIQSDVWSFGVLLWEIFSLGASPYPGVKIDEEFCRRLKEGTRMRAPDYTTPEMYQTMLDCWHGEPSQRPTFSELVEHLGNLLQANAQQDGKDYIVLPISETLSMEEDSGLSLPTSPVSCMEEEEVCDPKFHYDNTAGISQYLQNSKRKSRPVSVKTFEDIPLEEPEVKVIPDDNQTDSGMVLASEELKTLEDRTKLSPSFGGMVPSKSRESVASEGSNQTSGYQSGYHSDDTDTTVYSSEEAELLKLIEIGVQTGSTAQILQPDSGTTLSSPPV
Put plainly: KDR kinase assay (HTScan VEGFR-2 kit, DELFIA). To be noted: for inhibition at 1 µM: read-out: KDR 1 μM, % of inhibition relative to control; for inhibition at 0.1 µM: read-out: KDR 0.1 μM, % of inhibition relative to control. In short, it runs like this:
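GST-tagged human VEGFR-2 (Val789-Val1356) from baculovirus, with 1.5 μM biotinylated gastrin precursor peptide and 20 μM ATP in HEPES pH 7.5, Mg/Mn, vanadate, DTT, 1% DMSO. Pre-incubation 5 min, reaction 30 min at room temperature; phosphorylation read by DELFIA.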

T2 sequence (P10721 544-976): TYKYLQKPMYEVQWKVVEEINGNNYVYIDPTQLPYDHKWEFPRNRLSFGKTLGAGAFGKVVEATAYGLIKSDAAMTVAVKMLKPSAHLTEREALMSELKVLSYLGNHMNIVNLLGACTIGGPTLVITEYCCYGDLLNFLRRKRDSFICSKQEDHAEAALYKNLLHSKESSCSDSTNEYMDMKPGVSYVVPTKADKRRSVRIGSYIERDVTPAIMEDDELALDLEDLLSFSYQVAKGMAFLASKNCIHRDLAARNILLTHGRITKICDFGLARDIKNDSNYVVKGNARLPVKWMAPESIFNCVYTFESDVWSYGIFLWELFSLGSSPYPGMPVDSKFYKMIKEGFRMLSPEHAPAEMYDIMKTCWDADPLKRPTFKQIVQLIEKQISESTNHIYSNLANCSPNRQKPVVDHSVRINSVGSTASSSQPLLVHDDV
T1 sequence (P00533 672-1210): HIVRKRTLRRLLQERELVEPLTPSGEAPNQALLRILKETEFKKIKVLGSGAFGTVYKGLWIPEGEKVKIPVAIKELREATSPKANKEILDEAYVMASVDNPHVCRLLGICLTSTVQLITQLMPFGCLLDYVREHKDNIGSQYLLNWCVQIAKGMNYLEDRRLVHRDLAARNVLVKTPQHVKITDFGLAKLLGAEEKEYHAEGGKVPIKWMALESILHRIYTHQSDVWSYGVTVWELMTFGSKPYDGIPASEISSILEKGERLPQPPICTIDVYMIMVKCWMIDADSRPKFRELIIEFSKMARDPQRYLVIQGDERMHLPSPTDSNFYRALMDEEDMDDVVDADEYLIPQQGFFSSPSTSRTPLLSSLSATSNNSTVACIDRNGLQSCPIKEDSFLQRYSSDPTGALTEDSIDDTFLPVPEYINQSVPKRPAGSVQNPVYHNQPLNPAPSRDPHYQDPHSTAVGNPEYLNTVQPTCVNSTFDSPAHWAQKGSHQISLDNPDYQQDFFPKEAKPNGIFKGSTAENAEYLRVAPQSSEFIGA

Regarding `COc1ccc2c(c1)/C(=C/c1ccc3cccccc1-3)C(=O)N2` [Compound 44, 3-Azulen-1-ylmethylene-5-methoxy-1,3-dihydro-indol-2-one], the inhibition (as a rule, the share of the control response that was lost under treatment) at 0.1 µM in experiment [1] (compound at 0.1 μM) was 4.7%; in experiment [2] (compound at 0.1 μM) it was 7.2%; in experiment [3] (compound at 0.1 μM) it was 5.7%. The inhibition at 1 µM in experiment [1] (compound at 1 μM) is 9.3%; in experiment [2] (compound at 1 μM) it was 7.2%; in experiment [3] (compound at 1 μM), 8.2%; in experiment [4] (compound at 1 μM), 38.4%.

For the compound `CN(C)S(=O)(=O)c1ccc2c(c1)/C(=C/c1ccc3cccccc1-3)C(=O)N2` [Compound 50, (3Z)-3-(((3aZ,5Z,7Z)-azulen-1-yl)methylene)-5-(N,N-dimethylsulfonyl)indolin-2-one], the “EGFR 0.1 μM, % of inhibition relative to control” value in experiment [1] (compound at 0.1 μM) was 7.9%. Also, in experiment [1] (compound at 1 μM), the “EGFR 1 μM, % of inhibition relative to control” value turned out to be 10.4%. In addition, in experiment [2] (compound at 0.1 μM), the “c-KIT 0.1 μM, % of inhibition relative to control” value was 19.5%. Also, in experiment [2] (compound at 1 μM), the “c-KIT 1 μM, % of inhibition relative to control” value turned out to be 19.5%. In addition, the “FLT-3 0.1 μM, % of inhibition relative to control” value in experiment [3] (compound at 0.1 μM) was 4.0%. Besides, the “FLT-3 1 μM, % of inhibition relative to control” value in experiment [3] (compound at 1 μM) is 29.6%. Moreover, the “KDR 0.1 μM, % of inhibition relative to control” value in experiment [4] (compound at 0.1 μM) is 22.3%. For the same compound, the “KDR 1 μM, % of inhibition relative to control” value in experiment [4] (compound at 1 μM) is reported as 25.8%.

For `O=C1Nc2ccc(F)cc2/C1=C\c1cc(Br)c2cccccc1-2` [Compound 51, 3-(3-Bromo-azulen-1-ylmethylene)-5-fluoro-1,3-dihydro-indol-2-one], the inhibition at 1 µM in experiment [1] (compound at 1 μM) amounted to 11.5%; in experiment [2] (compound at 1 μM), 73.9%; in experiment [3] (compound at 1 μM) it was 82.6%; in experiment [4] (compound at 1 μM) it was 26.4%. In addition, the inhibition at 0.1 µM in experiment [2] (compound at 0.1 μM) worked out at 73.9%; in experiment [3] (compound at 0.1 μM), 38.4%.

For `COc1ccc2c(c1)/C(=C\c1ccc3cccccc1-3)C(=O)N2` [Compound 43, 3-Azulen-1-ylmethylene-5-methoxy-1,3-dihydro-indol-2-one], the inhibition at 0.1 µM came to 6.2% in experiment [1] (compound at 0.1 μM) and 14.7% in experiment [2] (compound at 0.1 μM). In addition, the inhibition at 1 µM in experiment [1] (compound at 1 μM) worked out at 11.9%; in experiment [2] (compound at 1 μM), 14.7%; in experiment [3] (compound at 1 μM) it was 24.3%; in experiment [4] (compound at 1 μM) it was 6.8%.

`O=C1Nc2c(Cl)cccc2/C1=C/c1ccc2cccccc1-2` [Compound 42, 3-Azulen-1-ylmethylene-7-chloro-1,3-dihydro-indol-2-one]: the inhibition at 0.1 µM in experiment [1] (compound at 0.1 μM) is 8.8%; in experiment [2] (compound at 0.1 μM), 8.3%; in experiment [3] (compound at 0.1 μM) it was 8.9%; in experiment [4] (compound at 0.1 μM) it was 6%. Moreover, the inhibition at 1 µM in experiment [1] (compound at 1 μM) was determined as 10.8%; in experiment [2] (compound at 1 μM), 8.3%; in experiment [3] (compound at 1 μM) it was 24.3%; in experiment [4] (compound at 1 μM) it was 13.6%.

Take `O=C1Nc2ccc(F)cc2/C1=C/c1cc(Br)c2cccccc1-2` [Compound 45, 3-(3-Bromo-azulen-1-ylmethylene)-5-fluoro-1,3-dihydro-indol-2-one]: the inhibition at 0.1 µM in experiment [1] (compound at 0.1 μM) is 2.5%; in experiment [2] (compound at 0.1 μM), 73.9%; in experiment [3] (compound at 0.1 μM), 51.4%; in experiment [4] (compound at 0.1 μM) it was 32.8%. In addition, the inhibition at 1 µM in experiment [2] (compound at 1 μM) came to 73.9%; in experiment [3] (compound at 1 μM), 69.7%; in experiment [4] (compound at 1 μM), 41.9%.

Turning to `Cc1cc(/C=C2/C(=O)Nc3ccccc32)c2cccccc1-2` [Compound 36, 3-(3-Methyl-azulen-1-ylmethylene)-1,3-dihydro-indol-2-one], the inhibition at 0.1 µM is 9.6% in experiment [1] (compound at 0.1 μM) and 49.2% in experiment [2] (compound at 0.1 μM). In addition, the inhibition at 1 µM in experiment [1] (compound at 1 μM) was determined as 10.9%; in experiment [2] (compound at 1 μM) it was 49.2%; in experiment [3] (compound at 1 μM), 39.3%; in experiment [4] (compound at 1 μM), 0.3%.

For the compound `O=C1Nc2ccc(F)cc2/C1=C/c1cc(Cl)c2cccccc1-2` [Compound 46, 3-(3-Chloro-azulen-1-ylmethylene)-5-fluoro-1,3-dihydro-indol-2-one], the inhibition at 0.1 µM was 11% in experiment [1] (compound at 0.1 μM), 70.9% in experiment [2] (compound at 0.1 μM), 45.9% in experiment [3] (compound at 0.1 μM) and 10% in experiment [4] (compound at 0.1 μM). Besides, the inhibition at 1 µM was 18.5% in experiment [1] (compound at 1 μM), 70.9% in experiment [2] (compound at 1 μM), 73.5% in experiment [3] (compound at 1 μM) and 33.2% in experiment [4] (compound at 1 μM).

For `Cc1cc(/C=C2\C(=O)Nc3ccc(F)cc32)c2cccccc1-2` [Compound 39, 5-Fluoro-3-(3-methyl-azulen-1-ylmethylene)-1,3-dihydro-indol-2-one], the figures for the inhibition at 0.1 µM in experiment [1] (compound at 0.1 μM), in experiment [2] (compound at 0.1 μM) and in experiment [3] (compound at 0.1 μM) were 6.1%, 80.1% and 45.6%, respectively. Moreover, the inhibition at 1 µM in experiment [1] (compound at 1 μM) turned out to be 14.1%; in experiment [2] (compound at 1 μM) it was 80.1%; in experiment [3] (compound at 1 μM) it was 93.2%; in experiment [4] (compound at 1 μM) it was 20.2%. In addition, the IC50 – broadly, the concentration needed to halve the response being measured – in experiment [2] (read-out: c-KIT kinase inhibition (IC50)) was 128 nM; in experiment [3] (read-out: FLT-3 kinase inhibition (IC50)), 491 nM; in experiment [4] (read-out: KDR kinase inhibition (IC50)), 6.38 µM.

For the compound `O=C1Nc2ccccc2/C1=C\c1cc2cccccc-2c1` [Compound 32, 3-Azulen-2-ylmethylene-1,3-dihydro-indol-2-one], the values for the inhibition at 0.1 µM in experiment [1] (compound at 0.1 μM), in experiment [2] (compound at 0.1 μM) and in experiment [3] (compound at 0.1 μM) were 7.7%, 60.3% and 48.5%, respectively. Moreover, the inhibition at 1 µM was found to be 13.7% in experiment [1] (compound at 1 μM), 60.3% in experiment [2] (compound at 1 μM), 89.5% in experiment [3] (compound at 1 μM) and 6.2% in experiment [4] (compound at 1 μM).

On to `Cc1ccc2c(c1)/C(=C/c1ccc3cccccc1-3)C(=O)N2` [Compound 48, 3-Azulen-1-ylmethylene-5-methyl-1,3-dihydro-indol-2-one], for which the inhibition at 0.1 µM in experiment [1] (compound at 0.1 μM) was 7.8%; in experiment [2] (compound at 0.1 μM), 32.2%; in experiment [3] (compound at 0.1 μM), 4.5%. The inhibition at 1 µM in experiment [1] (compound at 1 μM) worked out at 10.4%; in experiment [2] (compound at 1 μM) it was 32.2%; in experiment [3] (compound at 1 μM), 61.6%; in experiment [4] (compound at 1 μM) it was 13.8%.
